{"source": "paper PMC9783868", "about": "“Indoline-5-Sulfonamides: A Role of the Core in Inhibition of Cancer-Related Carbonic Anhydrases, Antiproliferative Activity and Circumventing of Multidrug Resistance” (Pharmaceuticals, 2022)", "key": {"[1]": {"target": "T1, hCA I (Homo sapiens, UniProt P00915)", "T1 construct": "made in house", "T1 sequence (P00915 whole entry, canonical isoform)": "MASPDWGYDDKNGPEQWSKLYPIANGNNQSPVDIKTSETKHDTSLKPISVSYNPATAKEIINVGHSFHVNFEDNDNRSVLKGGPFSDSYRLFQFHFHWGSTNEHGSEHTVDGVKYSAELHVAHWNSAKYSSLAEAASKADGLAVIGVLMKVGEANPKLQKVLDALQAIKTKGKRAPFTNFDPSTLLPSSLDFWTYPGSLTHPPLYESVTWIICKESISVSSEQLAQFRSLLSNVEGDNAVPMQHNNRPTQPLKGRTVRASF", "experiment": "CA inhibition, stopped-flow CO2 hydration assay", "type": "biochemical", "settings": "stopped-flow technique; mean from three assays", "protocol": "(§1) The CO2 hydration activity of the four hCA isoforms was monitored using an Applied Photophysics stopped-flow instrument. Phenol red (at a concentration of 0.2 mM) was used as an indicator, working at the absorbance maximum of 557 nm, with 10 mM HEPES (pH 7.4) as a buffer, and 20 mM NaClO4 (for maintaining constant the ionic strength), following the initial rates of the CA-catalyzed CO2 hydration reaction for a period of 10–100 s. To determine the kinetic parameters by Lineweaver-Burk plots and the inhibition constants, a concentration of CO2 between 1.7 to 17 mM was used. At least six measurements of the original 5–10% reaction were used to assess the initial velocity for each inhibitor. The uncatalyzed rates were determined and detracted from the total observed rates. Stock inhibitor solutions (10–100 mM) were prepared in distilled-deionized water, and dilutions up to 0.1 nM were done with the buffer test. […] The inhibition constants were obtained by non-linear least-squares methods using PRISM 6 and the Cheng-Prusoff equation, as reported earlier, and represent the mean from at least three different determinations."}, "[2]": {"target": "T2, hCA XII (Homo sapiens, UniProt O43570)", "T2 construct": "made in house", "T2 sequence (O43570 25-354)": "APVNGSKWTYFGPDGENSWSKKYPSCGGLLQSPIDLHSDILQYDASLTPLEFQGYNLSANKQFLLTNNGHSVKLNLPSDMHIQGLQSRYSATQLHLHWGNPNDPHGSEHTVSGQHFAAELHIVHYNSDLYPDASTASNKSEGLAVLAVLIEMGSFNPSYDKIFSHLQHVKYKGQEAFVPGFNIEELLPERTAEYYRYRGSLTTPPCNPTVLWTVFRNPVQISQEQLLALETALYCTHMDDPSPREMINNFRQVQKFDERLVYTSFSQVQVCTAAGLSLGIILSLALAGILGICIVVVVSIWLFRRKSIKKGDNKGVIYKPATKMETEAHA", "experiment": "CA inhibition, stopped-flow CO2 hydration assay", "type": "biochemical", "settings": "stopped-flow technique; mean from three assays", "protocol": "as §1"}, "[3]": {"target": "T3, hCA II (Homo sapiens, UniProt P00918)", "T3 construct": "made in house", "experiment": "CA inhibition, stopped-flow CO2 hydration assay", "type": "biochemical", "settings": "stopped-flow technique; mean from three assays", "protocol": "as §1"}, "[4]": {"target": "T4, hCA IX (Homo sapiens, UniProt Q16790)", "T4 construct": "made in house", "experiment": "CA inhibition, stopped-flow CO2 hydration assay", "type": "biochemical", "protocol": "as §1"}, "[5]": {"system": "K562/4 cells", "experiment": "Reversal of chemoresistance to Dox, MTT test", "type": "cell-based, human", "source_text": "Earlier, Kopecka and colleagues have shown that CA XII can interact with P-gp and influence its activity. Subsequently, silencing or inhibition of CA XII by chemical agents may restore the sensitivity to Dox of resistant K562 and other tumor cells. Given the potent inhibition of 4f against CA XII and the activity of 4e against K562, we examined their ability to reverse the chemoresistance of K562/4 with P-gp to Dox.\nThe MCF7 human breast, A431 human skin cancer cells and K562 (ATCC CCL-243) chronic myelogenous leukemia cells were obtained from the ATCC collection. The MDR subline K562/4 [77] (kind gift of Dr. Alexander Shtil, Blokhin N.N. National Medical Research Center of Oncology) was obtained by stepwise selection of K562 cells for survival under continuous exposure to Dox. This subline expresses the MDR1 gene and functional P-gp and is characterized by a high resistance index for Dox. The MCF7 and A431 cells were cultured in standard 4.5 g/L glucose DMEM medium (Gibco) supplemented with 10% FCS (HyClone), 2 mM L-glutamine, 50 U/mL penicillin, 50 µg/mL streptomycin (PanEco), 100 µg/mL sodium pyruvate (Santa Cruz) at 37 °C, 5% CO2 and 80–85% humidity in NuAire incubator. Suspension myelogenous leukemia cells (K562, K562/4) were propagated in RPMI-1640 (PanEco) with 5% FCS (HyClone), 2 mM L-glutamine, 100 U/mL penicillin, and 100 µg/mL streptomycin at 37 °C, 5% CO2, and 80–85% humidity in Binder incubator. Cells in the logarithmic phase of growth were used in the experiments. The growth inhibitory activity of compounds was assessed by the MTT test based on the metabolism of the MTT reagent (3-[4,5-dimethylthiazol-2-yl]-2,5-diphenyltetrazolium bromide) (Applichem) in living cells, with modifications as described previously in [49]. Compounds at different concentrations in 100 μL of the appropriate medium were added, and the cells were grown for 72 h. The hypoxia (1% O2) conditions were simulated in Binder multigas incubator, as described in [49]. After incubation with compounds, the medium was removed, the MTT reagent that was dissolved in the medium was added to the final concentration of 0.2 mg/mL to each well, and the incubation was performed for 2 h. Then the cell supernatants were removed, and purple formazan crystals were dissolved in 100% DMSO (350 μL per well). Culture plates were gently shaken, and the absorbance was measured at 571 nm with a reference wavelength of 630 nm on a MultiScan reader (ThermoFisher, Waltham, MA, USA). The viability of the cells was expressed as a percentage of the control. Dose-response curves were analyzed by regression analysis using sigmoid curves (Log(concentration) vs. normalized absorbance).\nFigure 6 Susceptibility of resistant K562/4 line to combinations of Dox (25 µM) with indoline-5-sulfonamides 4e and 4f. […]"}, "[6]": {"system": "GLUT1", "experiment": "Immunoblotting of hypoxia-induced protein expression in A431 cells", "type": "cell-based, human", "settings": "hypoxia 24 h", "protocol": "(§2) We wondered whether compound 4f affected CA IX expression or whether its activity was limited to inhibiting the enzyme activity reported above (Table 1). To induce CA IX expression, cells were placed in hypoxia for 24 h, and then protein expression was analyzed by immunoblotting. Because the data on the expression of hypoxia-related proteins in the literature are highly inconsistent, we introduced additional controls. Antibodies to hypoxia-regulated and “non-hypoxic” proteins were used. The expression of kinase Akt, which is not regulated directly by hypoxia/HIF-1α, was not altered under hypoxia conditions (Figure 5F). […] Thus, lead compound 4f not only blocks the enzyme activity of CA IX, but also causes partial inhibition of hypoxia-induced CA IX expression in skin cancer cells.\n(§3) A431 cells were seeded on 100 mm dishes (Corning, Corning, NY, USA), and after 24 h growth, the compound 4f was added to a fresh medium. To prepare cell extracts, A431 cells were twice washed in phosphate buffer and incubated for 10 min on ice in the modified lysis buffer containing 50 mM Tris-HCl, pH 7.5, 0.5% Igepal CA-630, 150 mM NaCl, 1 mM EDTA, 1 mM DTT, 1 mM PMSF, 0.1 mM sodium orthovanadate and aprotinin, leupeptin and pepstatin (1 µg/mL each) as described earlier in the work. The protein content was determined by the Bradford method.\n(§4) A431 cell lysates were separated in 10% SDS-PAGE under reducing conditions, transferred to a nitrocellulose membrane (GE HealthCare, Chicago, IL, USA), and processed according to a standard protocol. Akt, GLUT1, PD-L1, and CA IX antibodies were obtained from Cell Signaling Technology (Danvers, MA, USA); the antibodies against GAPDH (Cell Signaling Technology) were added to standardize loading. Goat anti-rabbit IgGs (Jackson ImmunoResearch, West Grove, PA, USA) conjugated to horseradish peroxidase were used as secondary antibodies. Signals were detected using the ECL reagent as described in Mruk and Cheng’s protocol and an ImageQuant LAS4000 system (GE HealthCare)."}, "[7]": {"system": "CA IX", "experiment": "Immunoblotting of hypoxia-induced protein expression in A431 cells", "type": "cell-based, human", "settings": "hypoxia 24 h", "protocol": "as §2, §3, §4"}, "[8]": {"system": "PD-L1", "experiment": "Immunoblotting of hypoxia-induced protein expression in A431 cells", "type": "cell-based, human", "settings": "hypoxia 24 h", "protocol": "as §2, §3, §4"}}, "data": [{"compound": "NS(=O)(=O)c1ccc2c(c1)CCN2C(=O)c1cccc(Cl)c1", "note": "[Compound 4f, 1-(3-Chlorobenzoyl)indoline-5-sulfonamide]", "values": [{"measurement": "melting point", "value": "> 250", "unit": "°C"}, {"measurement": "Ki", "setting": "[1]", "value": 0.304, "unit": "µM"}, {"measurement": "Ki", "setting": "[2]", "value": 0.112, "unit": "µM"}, {"measurement": "Ki", "setting": "[3]", "value": 0.0313, "unit": "µM"}, {"measurement": "fold higher activity against CA IX compared with 4e", "setting": "[4]; in vitro KI, 4f vs 4e", "value": "~10", "unit": "fold"}, {"measurement": "Ki", "setting": "[4]; stopped-flow technique, mean from three assays", "value": 0.141, "unit": "µM"}, {"measurement": "effect of combination with Dox on viable K562/4 cells", "setting": "[5]; combination with Dox (25 µM)", "value": "decline of viable K562/4 cells"}, {"measurement": "cytotoxic activity against MDR subline K562/4 as monoagent", "setting": "[5]; monoagent", "value": "low cytotoxic activity"}, {"measurement": "GLUT1 expression in A431 cells", "setting": "[6]", "value": "did not change"}, {"measurement": "CA IX expression in A431 cells", "setting": "[7]", "value": "moderate decrease"}, {"measurement": "PD-L1 expression in A431 cells", "setting": "[8]", "value": "did not change"}]}]}
